According to publication PMC3606118, “Salvianolic Acid A, a Novel Matrix Metalloproteinase-9 Inhibitor, Prevents Cardiac Remodeling in Spontaneously Hypertensive Rats” (PLoS ONE, 2013):

Columns and labels:
[1] = test system: H9c2 cells overexpressing MMP-9 (pDEST-MMP9); assay: Transwell migration of H9c2 cells overexpressing MMP-9; type: cell-based, Rat; settings: pDEST-MMP9 untreated 157.4±10.2, pDEST 74.6±8.9
Procedure: Transwell assay was employed to evaluate effects of SalA on neonatal cardiac fibroblast migration induced by MMP-9 CD. Twenty thousand cells in 200 µL culture medium containing various concentrations of SalA were loaded onto PET track-etched membrane in modified Boyden chambers (BD Falcon Cell Culture Insert, BD), and same medium containing MMP-9 CD (200 nmol/L) was added to the lower side of the migration chamber. After incubating for 24 h, migrated cells (in the lower side of migration chamber) were stained with 0.1% crystal violet and counted with a microscope at 200 X magnification. Five to six view fields were counted on each membrane. Migration is expressed as the mean value of total number of migrated cells per field. DNA cloning using Gateway technology was carried out according to manufacturer’s instructions. Full-length MMP-9 cDNA (MGC-12688) was first subcloned into entry vector pDONR^TM221, followed by recombination reaction between the attL-containing pDONR^TM221 vector and attR-containing destination pDEST vector (Invitrogen, Carlsbad, CA, USA). […] Stable H9c2 cell line was generated by selection with 2 mg/mL G418 (denoted as pDEST-MMP9) and maintained in 0.75 mg/mL G418, and expression of MMP-9 was evaluated using zymography assay. […]

[2] = test system: neonatal cardiac fibroblast; assay: Multiplex cytokine assay (Procarta) in cardiac fibroblast supernatants; type: cell-based, Wistar rats; settings: 1 or 10 µmol/L SalA, 24 h
Procedure: (§1) Primary cardiac fibroblast was obtained from neonatal rats and National Institutes of Health (NIH) Guide for the Care and Use of Laboratory Animals was followed throughout. Wistar rats (2–4 day old) were sacrificed by cervical dislocation; ventricles were minced and digested with 0.1% trypsin at 37°C for 8 min. The liberated cells were collected by centrifugations; non-digested chunk materials were further digested in 0.1% trypsin for an additional 8 min. This digestion procedure was repeated 3–4 times. All the liberated cells were pelleted by centrifugation at 1,000 rpm for 10 min, re-suspended in DMEM containing 10% fetal bovine serum (FBS), and cultured in a 100-mm noncoated culture flask at 37°C with 5% CO2 for 2 h. Adherent cardiac fibroblasts were collected and maintained in DMEM supplemented with 10% FBS, 100 U/mL penicillin, 100 µg/mL streptomycin [12]. Cardiac fibroblasts were treated by vehicle (Con); 200 nmol/L MMP-9 CD (MMP-9); 200 nmol/L MMP-9 CD plus 1 µmol/L SalA [MMP-9/SalA(1)]; or 200 nmol/L MMP-9 CD plus 10 µmol/L SalA [MMP-9/SalA(10)] for the following research. All the detections were conducted after 24 h treatment.
Procarta cytokine profiling kit (Panomics, CA, USA) was used to simultaneously detect 3 different rat cytokines in the cell culture supernatants, according to manufacturer’s instruction. Briefly, 50 µL antibody beads were added to each well of the Filter plate, washed with Wash buffer. Fifty microliter cell culture supernatant was then added to each well, incubated for at least 1 h at room temperature, and washed with Wash buffer. Afterwards, 25 µL per well of the Detection Antibody was added and the Filter plate was shaken at 500 rpm for 30 min at room temperature. After adding Sreptavidin-PE, the signals were detected using a Luminex 200 instrument (Bio-Rad, CA, USA). The cytokines included in the present study were intercellular adhesion molecule (ICAM), interleukin-6 (IL-6), tumor necrosis factor-α (TNF-α and soluble vascular cell adhesion molecule-1 (sVCAM-1).

[3] = test system: neonatal cardiac fibroblasts; assay: Myofibroblast transformation (α-SMA immunofluorescence) induced by MMP-9 CD; type: cell-based, Wistar rats; settings: 1 or 10 µmol/L SalA, 200 nmol/L MMP-9 CD, 24 h
Procedure: as §1
α-SMA expression was used to evaluate the effect of SalA on myofibroblast transformation from fibroblast induced by MMP-9 CD. Neonatal cardiac fibroblasts were cultured on glass slides until reaching ∼70% confluence. […]

[4] = test system: neonatal cardiac fibroblast; assay: Soluble collagen secretion (picrosirius red assay); type: cell-based, Wistar rats; settings: 24 h, p<0.05
Procedure: as §1, with “All the detections were conducted after 24 h treatment.” left out
Soluble collagen secreted by neonatal cardiac fibroblast was measured using picrosirius red assay with minor modification, [15]. […] 200 µL solution was transferred to 96 well plate for measuring absorbance at 595 nm using a UV spectrophotometer (Tecan GENios, Austria).

O=C(/C=C/c1ccc(O)c(O)c1/C=C/c1ccc(O)c(O)c1)O[C@H](Cc1ccc(O)c(O)c1)C(=O)O [SalA, salvianolic acid A]
migrated cells ([1]; 1 µmol/L SalA): 84.4±17.0 cells per field
migrated cells ([1]; 10 µmol/L SalA): 42.3±8.9 cells per field
ICAM secretion induced by MMP-9 CD [2]: inhibition
IL-6 secretion induced by MMP-9 CD [2]: inhibition
TNF-α secretion induced by MMP-9CD [2]: No significant inhibitory effect
sVCAM-1 secretion induced by MMP-9 CD [2]: inhibition
α-SMA up-regulation (myofibroblast transformation) induced by MMP-9 CD [3]: reversed the effects of MMP-9 CD
net collagen production in the presence of MMP-9 CD ([4]; 1 µmol/L SalA): significantly attenuated
net collagen production in the presence of MMP-9 CD ([4]; 10 µmol/L SalA): significantly attenuated
